Data from patent publication US7700122B1, “Topical compositions comprising an opioid analgesic and an NMDA antagonist” (Memorial Sloan-Kettering Cancer Center, priority 1998, dated 2010).
Entries after “also recorded” stand apart in the source; their conditions may differ. Where a name gives a salt, the structure may show the parent alone.

Key:
[1] = system: CD-1 mice; assay: Effects of opioid antagonists on topical mu analgesia (tailflick); assay type: in vivo; conditions: for effect of 3-methoxynaltrexone on topical M6G response: 0.25 mg/kg s.c. 20 min prior, M6G 20 mM; for effect of naloxone on topical opioid analgesic responses: naloxone 1 mg/kg s.c. 20 min prior, M6G 20 mM topical 1 min
Experimental: (§1) Systemic drugs were given subcutaneously (s.c.) in the midscapular region of the back. Intracerebroventricularly (i.c.v.) and intrathecal injections were performed under light halothane anesthesia 30 and 15 min before testing, respectively, as previously reported (Kolesnikov et al, 1996). The i.c.v. injections were administered-2 mm caudal and 2 mm lateral to the bregma at a depth of 3 mm, whereas intrathecal injections were made by lumbar puncture. Drugs were given topically on the tail by immersion of the tail in dimethylsulfoxide (DMSO) solutions containing the indicated drugs. The distal portion of the tail (3 cm) was immersed in DMSO solution for 1 min. Tailflick latencies then were determined on the region of the tail immersed in the drug, unless otherwise stated. To ensure a local effect, testing was also done with a more proximal segment of tail not exposed to the drug solution.
(§2) Analgesia was assessed with the tail-flick assay, as previously reported (Kolesnikov et al., 1996). The tail was exposed to a focused beam of light and the latency of exposure determined. […] A maximum cutoff latency of 10 sec was used to minimize tissue damage in analgesic animals. Testing was performed 30 min after systemic administration, 15 min after either i.c.v or i.t. injections or immediately after termination of topical administration into the tail. Antinociception, or analgesia, was defined quantally as a tailflick latency for an individual mouse which was at least twice its baseline latency. Group comparisons were performed using the Fisher exact test. ED50 values were determined using the Bliss program, as previously reported (Pick et al., 1993). To ensure a local action, in all studies we examined a region of the tail which was immersed in DMSO as well as a more proximal segment which was not exposed.

[2] = system: CD-1 mice; assay: Effect of NMDA antagonists (MK801, ketamine) on topical morphine tolerance (tailflick); assay type: in vivo
Experimental: as §1, §2

[3] = for Radioactivity, Tail Unexposed: unexposed tail less than 1 cm from exposed region
[4] = system: CD-1 mice; assay: Interactions between topical and systemic or spinal morphine (tailflick); assay type: in vivo; conditions: for ED50: Mus musculus, topical, 0.5 h
Experimental: Testing was performed 10 min following drug administration. […] Testing was performed 30 min following drug administration.
as §1, §2

[5] = system: CD-1 mice; assay: Tolerance to systemic and topical morphine and cross tolerance (tailflick); assay type: in vivo; conditions: for response to topical opioid after chronic systemic morphine (cross tolerance): morphine 5 mg/kg s.c. daily five days, tested day six, 1 min local exposure (morphine 15 mM, M6G 20 mM, DAMGO 2 mM)
Experimental: as §1, §2

[6] = system: CD-1 mice; assay: Tailflick assay, topical opioid analgesia (tail immersion in DMSO solution); assay type: in vivo; conditions: for analgesic response: morphine solution 7.5 mM; for analgesic response in proximal tail not exposed to the opioid solution: mouse, in vivo; for Relative potency: ratio of topical ED50 against morphine; for ED50 (95% CL): topical for 1 min, tailflick assay, CD-1 mice
[7] = system: CD-1 mice; conditions: subcutaneous injection in the tail, doses of 10 or 30 μg
[8] = central actions; cited from earlier work
[9] = tail immersed 3 min in 100 μCi/ml in DMSO, sampled within 5 min
[10] = morphine 15 mM daily, after three days

Which results are given for COc1ccc2c3c1O[C@H]1C(=O)CC[C@@]4(O)[C@@H](C2)N(CC2CC2)CC[C@]314 [3-MeONtx, 3-methoxynaltrexone]?
effect of 3-methoxynaltrexone on topical M6G response [1]: significantly lowered the response only for M6G; effect of 3-methoxynaltrexone on topical M6G response ([1]; listed as 3MeONtx): significantly lowered the M6G response; effect of 3-methoxynaltrexone on topical morphine or DAMGO analgesia ([1]; 0.25 mg/kg s.c., morphine 15 mM, DAMGO 2 mM): inactive

For C=CCN1CC[C@]23c4c5ccc(O)c4O[C@H]2C(=O)CC[C@@]3(O)[C@H]1C5 [naloxone], which “effect of naloxone on topical opioid analgesic responses” value ([1]; morphine 15 mM, DAMGO 2 mM) is on record?
The value was “easily reversed; also recorded: readily reversed”.

What about the “effect of naloxone on topical opioid analgesic responses” value ([1]; morphine 15 mM, DAMGO 2 mM, listed as Naloxone) of the same compound?
The value was “significantly reduced the responses for all agonists”.

With CNC1(c2ccccc2Cl)CCCCC1=O (stereo not shown) [ketamine, 2-(2-chlorophenyl)-2-(methylamino) cyclohexanone] as the compound, how does the “topical morphine tolerance with intrathecal ketamine” value ([2]; data not shown) read?
Its value is “ineffective”.

And the “topical morphine tolerance with systemic ketamine” value ([2]; data not shown)?
Its value is “prevented the development of tolerance to topical morphine”.

What about the “reversal of established topical morphine tolerance by topical ketamine 36 mM” value ([2]; ketamine from day 3 through day 6) of the same compound?
Its value is “completely restored morphine analgesia”.

What about the “topical morphine tolerance with topical ketamine 3.6 mM” value ([2]; morphine 15 mM once daily) of the same compound?
The value was “significantly lessened the loss of morphine analgesic response after three days; also recorded: delayed the appearance of tolerance”.

What about the “topical morphine tolerance with topical ketamine 36 mM” value ([2]; morphine 15 mM once daily) of the same compound?
The value was “prevented tolerance up to six days; also recorded: effectively blocked tolerance”.

What about the “analgesia of ketamine alone” value ([2]; topical 36 mM) of the same compound?
The value was “did not produce significant analgesia; also recorded: no appreciable effect”.

Which results are given for [^125I]Morphine [^125I-Morphine]?
Radioactivity, Blood [3, 9]: 69 ± 18 cpm/g; Radioactivity, Spinal cord [3, 9]: 71 ± 12 cpm/g; Radioactivity, Tail Exposed [3, 9]: 38,460 ± 3,455 cpm/g; Radioactivity, Tail Unexposed [3]: 234 ± 51 cpm/g

What does the source list for CN1CC[C@]23c4c5ccc(O)c4O[C@H]2[C@@H](O)C=C[C@H]3[C@H]1C5 [Morphine]?
response to spinal morphine alone ([4]; 100 ng, i.t.): no observable action; response to systemic morphine alone ([4]; 1 mg/kg, s.c.): 10%; potentiation of analgesic potency of systemic morphine by topical morphine ([4]; 30 min): ~7 fold; ED50 ([4]; read-out: ED50 value, Systemic + topical): 0.66 mg/kg; ED50 ([4]; read-out: ED50 value, Systemic alone): 4.3 mg/kg; ED50 value, Spinal alone ([4]; intrathecal morphine alone, tested 15 min): 550 ng (386-822); ED50 value, Spinal + topical ([4]; intrathecal morphine with fixed topical morphine 15 mM, tested 15 min): 46 ng (21-84); enhancement of potency of intrathecal morphine by topical morphine ([4]; mouse, in vivo): ~12 fold; response of topical plus spinal morphine versus sum of routes ([4]; topical 15 mM 2 min + 100 ng i.t., 10 min): significantly more active than the sum of the two individual routes alone; response of topical plus systemic morphine versus sum of routes ([4]; topical 15 mM + 1 mg/kg s.c., 30 min): significantly greater than the sum of the two ones alone; response to topical morphine alone at 1 min ([4]; topical morphine 15 mM, 2 min exposure, 1 min after): 80%; response to topical morphine alone at 10 min ([4]; topical morphine 15 mM, 10 min after): 30%; response to topical morphine alone at 30 min ([4]; topical morphine 15 mM, 30 min after): no observable response; also recorded: No analgesia; day 3 response, systemic versus topical group ([5]; 5 mg/kg s.c. or topical 15 mM 1 min daily): significantly greater than the topical group; ED50 ([5]; Mus musculus, topical, read-out: ED50 (95% confidence limits), Systemic, Naive): 4.3 mg/kg; ED50 (95% confidence limits), Topical, Tolerant ([5]; after topical morphine 15 mM daily for two days): 78 mM (49, 123); response to topical opioid after chronic systemic morphine (cross tolerance) [5]: significantly decreased; ED50 (95% confidence limits), Topical, Naive ([5]; naive mice, topical morphine): 8.3 mM (4.1-10.2); response to daily topical morphine alone after three days ([5]; topical 15 mM, 1 min, daily): lost and profound tolerance by the third day and complete loss analgesia by the third day; analgesic response ([6]; exposure 30 seconds): 25%; analgesic response ([6]; exposure 2 min): 80%; analgesic response ([6]; exposure one minute): 50%; analgesic response in proximal tail not exposed to the opioid solution [6]: no analgesic response; duration of the response ([6]; topical, FIG. 1a): less than 30 min; onset of analgesia after removal of the tail from the opioid solution ([6]; topical, shortest time tested): detectable within one minute

For C[C@@H](NC(=O)[C@@H](N)Cc1ccc(O)cc1)C(=O)NCC(=O)N(C)[C@@H](Cc1ccccc1)C(=O)NCCO [DAMGO, [D-Ala^2,MePhe^4,Gly(ol)^5]enkephalin], which “response to topical opioid after chronic systemic morphine (cross tolerance)” value [5] is on record?
Its value is “significantly decreased”.

What about the “analgesic response in proximal tail not exposed to the opioid solution” value [6] of the same compound?
The value was “no analgesic response”.

What about the Relative potency [6] of the same compound?
Its Relative potency is 5.

What about the “ED50 (95% CL)” value [6] of the same compound?
Its value is 1.6 mM (1-2.5).

What about the “duration of action” value ([6]; topical, FIG. 1a) of the same compound?
The value was “lasting almost an hour”.

What about the “potency relative to morphine” value ([6]; topical, fixed exposure time) of the same compound?
Its value is “over 5 fold”.

For C[C@]12N[C@H](Cc3ccccc31)c1ccccc12 [MK801, (5R,10S)— (+)-5-methyl-10,11-dihydro-5H-dibenzo[a,d]cyclohapten-5,10-immine hydrogen maleate], which “topical morphine response with intrathecal MK801” value ([2]; MK801 1 μg i.t., morphine 15 mM daily) is on record?
Its value is “lost and ineffective”.

And the “topical morphine response with systemic MK801 (tolerance prevention)” value ([2]; MK801 0.1 mg/kg s.c., morphine 15 mM daily)?
The value was “remained essentially unchanged for five days”.

And the “reversal of established topical morphine tolerance by topical MK801” value ([2]; MK801 0.3 or 3 mM from fourth day)?
The value was “reversed the previously established tolerance”.

What about the “topical morphine response with topical MK801 3 mM (tolerance prevention)” value ([2]; morphine 15 mM 1 min daily) of the same compound?
The value was “remained essentially unchanged for five days; also recorded: prevented the loss of responsiveness”.

What about the “topical morphine response with topical MK801 0.15 mM” value [2, 10] of the same compound?
The value was “intermediate response”.

And the “topical morphine response with topical MK801 0.3 mM” value [2, 10]?
The value was “prevented the loss of responsiveness; also recorded: effectively blocking tolerance”.

For CN1CC[C@]23c4c5ccc(O)c4O[C@H]2[C@@H](O[C@@H]2O[C@H](C(=O)O)[C@@H](O)[C@H](O)[C@H]2O)C=C[C@H]3[C@H]1C5 [M6G, morphine-6β-glucuronide], which “ceiling effect of analgesia” value [7] is on record?
Its value is 30%.

What about the “central activity relative to morphine” value [8] of the same compound?
The value was “approximately 100 fold”.

What about the “response to topical opioid after chronic systemic morphine (cross tolerance)” value [5] of the same compound?
Its value is “no change”.

And the “analgesic response in proximal tail not exposed to the opioid solution” value [6]?
The value was “did not display analgesia”.

What about the Relative potency [6] of the same compound?
Its Relative potency is 0.9.

And the “ED50 (95% CL)” value [6]?
The value was 9.3 mM (7-14).

What about the “topical analgesic response” value ([6]; topical paradigm, tailflick) of the same compound?
The value was “full analgesic response”.

With [^125I]DAMGO [^125I-DAMGO] as the compound, how does the “Radioactivity, Blood” value [3, 9] read?
The value was <50 cpm/g.

What about the “Radioactivity, Brain” value [3, 9] of the same compound?
Its value is <50 cpm/g.

And the “Radioactivity, Spinal cord” value [3, 9]?
Its value is <50 cpm/g.

And the “Radioactivity, Tail Exposed” value [3, 9]?
The value was 45,280 ± 2,637 cpm/g.

What about the “Radioactivity, Tail Unexposed” value [3] of the same compound?
The value was 157 ± 51 cpm/g.
